According to patent US20240368153A1, “Aminopyridine-based MTA-Cooperative PRMT5 Inhibitors” (Mirati Therapeutics, Inc., priority 2021, published 2024):

How the values were obtained:
PRMT5/MEP50 complex [1] = target: T1, PRMT5/MEP50 complex (Homo sapiens (Human), UniProt O14744); assay: PRMT5:MEP50 HotSpot Assay; type: biochemical; details: read-out: IC50 + 2 μM MTA, full-length histone H2A, presence of 2 μM MTA
Description: The assay uses recombinant full-length histone H2A as the PRMT5 substrate. Enzymatic transfer of the tritiated methyl group from S-adenosyl-L-[methyl-3H]methionine to the histone H2A protein generated a radiolabeled histone […] in a scintillation counter to determine the activity of PRMT5 enzyme in the presence and absence of compound. […] Briefly, compounds of the present invention were solubilized in 100% DMSO at a highest concentration of 10 mM. […] Control samples lacking compound, PRMT5/MEP50 complex or various reaction components also were prepared and processed in parallel with compound test samples. SAH was used as a positive control for assay validation. To measure PRMT5 inhibitory activity. 1 nM PRMT5/MEP50 complex (Reaction Biology Corporation) was preincubated with test compound in assay buffer containing 5 μM full-length histone H2A for 20 min at room temperature. The enzymatic reaction was initiated by adding 1 μM tritiated S-adenosyl methionine (final concentration) and the reaction was allowed to proceed for 60 min. The reaction was stopped and transferred to filter paper for detection. The amount of tritiated H2A in each sample was determined using a scintillation counter.

[2] = target: PRMT5•MTA (biotinylated PRMT5-MEP50) (Homo sapiens (Human), UniProt O14744); assay: SPR binding assay, MTA running buffer; details: 20 μM MTA running buffer
Sequence of PRMT5•MTA (biotinylated PRMT5-MEP50) (O14744 whole entry, the tested form may be a part): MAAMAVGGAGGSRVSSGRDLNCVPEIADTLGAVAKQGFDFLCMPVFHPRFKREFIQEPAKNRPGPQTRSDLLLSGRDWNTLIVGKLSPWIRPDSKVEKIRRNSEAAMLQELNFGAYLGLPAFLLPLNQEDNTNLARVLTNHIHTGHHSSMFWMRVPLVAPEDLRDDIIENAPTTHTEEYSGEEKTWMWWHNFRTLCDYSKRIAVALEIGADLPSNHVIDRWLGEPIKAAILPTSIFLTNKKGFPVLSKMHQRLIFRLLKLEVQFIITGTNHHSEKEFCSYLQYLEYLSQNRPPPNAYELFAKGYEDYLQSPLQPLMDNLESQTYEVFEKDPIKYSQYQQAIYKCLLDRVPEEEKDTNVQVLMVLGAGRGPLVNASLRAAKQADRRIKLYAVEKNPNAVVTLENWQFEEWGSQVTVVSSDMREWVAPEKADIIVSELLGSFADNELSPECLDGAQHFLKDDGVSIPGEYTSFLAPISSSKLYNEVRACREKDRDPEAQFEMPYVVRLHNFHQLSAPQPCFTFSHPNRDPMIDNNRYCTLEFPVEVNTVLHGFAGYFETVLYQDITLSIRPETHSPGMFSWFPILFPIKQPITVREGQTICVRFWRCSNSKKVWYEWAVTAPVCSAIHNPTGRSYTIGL
Sequence of PRMT5•MTA (biotinylated PRMT5-MEP50) (Q9BQA1 whole entry partner, the tested form may be a part): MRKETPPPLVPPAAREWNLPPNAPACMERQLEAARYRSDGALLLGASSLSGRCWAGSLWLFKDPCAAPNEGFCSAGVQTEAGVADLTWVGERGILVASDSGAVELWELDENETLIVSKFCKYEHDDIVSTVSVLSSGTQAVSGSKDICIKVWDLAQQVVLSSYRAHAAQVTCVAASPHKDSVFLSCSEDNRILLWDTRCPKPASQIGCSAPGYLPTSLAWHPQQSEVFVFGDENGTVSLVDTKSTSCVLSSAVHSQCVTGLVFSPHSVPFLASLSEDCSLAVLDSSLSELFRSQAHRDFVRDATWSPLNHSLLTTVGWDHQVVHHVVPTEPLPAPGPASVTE
Description: (§1) SPR screening was performed in MTA running buffer (25 mM Bicine pH 7.6, 100 mM NaCl, 1 mM TCEP, 20 μM MTA, 0.05% Tween-20 and 2% DMSO). The biotinylated PRMT5-MEP50 surface was equilibrated with MTA running buffer for 12 hours prior to the start. […] Subsequently, compound titration was repeated in SAM-running buffer (25 mM Bicine pH 7.6, 100 mM NaCl, 1 mM TCEP, 20 μM SAM, 0.05% Tween-20, and 2% DMSO). […] After double referencing, the steady-state response was extracted for each fragment concentration and was fit to the Langmuir isotherm equation to determine the equilibrium dissociation constant (KD).

[3] = target: recombinant human dual expressed Avi PRMT5/His-MEP50 protein (Homo sapiens (Human), UniProt O14744); assay: HTRF binding assay in presence of MTA; details: 30 μM MTA
Sequence of recombinant human dual expressed Avi PRMT5/His-MEP50 protein (O14744 2-637): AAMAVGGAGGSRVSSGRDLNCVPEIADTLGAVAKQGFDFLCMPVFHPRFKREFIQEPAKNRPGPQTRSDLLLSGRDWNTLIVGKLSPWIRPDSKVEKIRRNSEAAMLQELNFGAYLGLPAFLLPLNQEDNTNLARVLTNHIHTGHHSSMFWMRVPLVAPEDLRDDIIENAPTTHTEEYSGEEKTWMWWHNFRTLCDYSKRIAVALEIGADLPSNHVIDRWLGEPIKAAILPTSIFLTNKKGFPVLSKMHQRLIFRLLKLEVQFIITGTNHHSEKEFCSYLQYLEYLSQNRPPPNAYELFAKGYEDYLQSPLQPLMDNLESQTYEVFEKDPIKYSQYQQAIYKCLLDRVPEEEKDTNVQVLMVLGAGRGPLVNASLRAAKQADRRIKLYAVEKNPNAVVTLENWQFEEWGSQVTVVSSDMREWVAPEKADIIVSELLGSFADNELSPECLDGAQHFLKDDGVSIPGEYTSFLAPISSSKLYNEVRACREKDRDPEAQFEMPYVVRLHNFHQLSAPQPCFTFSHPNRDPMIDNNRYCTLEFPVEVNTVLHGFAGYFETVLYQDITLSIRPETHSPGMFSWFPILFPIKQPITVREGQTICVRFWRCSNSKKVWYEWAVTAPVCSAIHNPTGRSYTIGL
Sequence of recombinant human dual expressed Avi PRMT5/His-MEP50 protein (Q9BQA1 2-342 partner): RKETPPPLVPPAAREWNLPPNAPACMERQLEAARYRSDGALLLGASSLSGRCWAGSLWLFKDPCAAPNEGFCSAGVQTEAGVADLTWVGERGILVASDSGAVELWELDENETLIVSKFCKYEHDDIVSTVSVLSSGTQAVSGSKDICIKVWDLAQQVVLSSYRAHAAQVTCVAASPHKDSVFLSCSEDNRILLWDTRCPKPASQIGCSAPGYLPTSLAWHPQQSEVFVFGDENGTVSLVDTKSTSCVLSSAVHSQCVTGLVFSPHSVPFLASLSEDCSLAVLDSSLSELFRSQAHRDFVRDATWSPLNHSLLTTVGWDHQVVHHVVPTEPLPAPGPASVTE
Description: The PRMT5 binding activity of compounds of the present invention was determined using an HTRF binding assay or SPR assay.
A recombinant human dual expressed Avi PRMT5/His-MEP50) protein (corresponding to amino acids for PRMT5 2-637, and 2-342 for MEP50 expressed in baculovirus) was incubated with target fragments in final buffer (25 mM ADA pH 7.2, 30 μM MTA, 1 mM TCEP, 50 mM NaCl, 0.002% Tween, 5 nM proprietary Tracer binding compound prepared in-house), overnight at 2-8° C. After overnight incubation the binding is monitored after the addition of 0.5 nM Anti-His-Tb (Cisbio) after 1 hr incubation at RT (˜20-24 hrs total binding time). The HTRF signal was measured using a Clariostar reader (BMG) excitation filter (Ex Tr), dichroic filter (LP TP) and emission filters (F 665-10 and F 620-10) manufacturer's instructions. The HTRF ratio was calculated using the formula: [emission 665/emission 620]*10000.

PRMT5/MEP50 complex [4] = target: T1, PRMT5/MEP50 complex; assay: PRMT5:MEP50 FlashPlate Assay; type: biochemical
Description: The PRMT5 inhibitory activity of compounds of the present invention was determined using a PRMT5:MEP50 FlashPlate Assay (Reaction Biology Corporation).
The assay uses purified human, PRMT5 enzyme to convert S-adenosyl-L-[methyl-^3H]methionine plus histone H4 L-arginine to S-adenosyl-L-homocysteine plus histone H4 [methyl-^3H]-L-arginine. The assay was carried out using Streptavidin-coated FlashPlates (Perkin Elmer), which contained a scintillant embedded in the plastic of the plate. The histone H4 peptide substrate was conjugated with biotin, which binds to the streptavidin-coated well of the plate, placing the H4 peptide in close proximity to the side well and the scintillant. The transfer of the tritiated methyl group from S-adenosyl-L-[methyl-^3H]methionine to the bound histone H4 peptide generated a radiolabeled histone H4, which was quantitated by measuring in a scintillation counter to determine the activity of PRMT5 enzyme in the presence and absence of compound. […] Briefly, compounds of the present invention were solubilized in 100% DMSO at a highest concentration of 10 mM. For IC, determinations, the initial starting concentration for the serial dilutions of each compound was 50 μM. Control samples lacking compound, PRMT5/MEP50 complex or various reaction components also were prepared and processed in parallel with compound test samples. SAH was used as a positive control for assay validation. To measure PRMT5 inhibitory activity, 3 nM PRMT5/MEP50 complex (Reaction Biology Corporation) was preincubated with test compound in assay buffer containing 40 nM histone H4 peptide (amino acids 1-15)-Biotin conjugate for 20 min at room temperature. The enzymatic reaction was initiated by adding 1 μM tritiated S-adenosyl methionine (final concentration) and the reaction is allowed to proceed for 20 min. The reaction was stopped and the amount of bound, tritiated H4 peptide in each sample was determined using a scintillation counter. The IC50 value for each compound was calculated from each 10-point dose-response curve for samples plus and minus MTA using GraphPad Prism software and the results for exemplary compounds of Formula (I) is shown in Table 9a.

[5] = target: PRMT5•SAM (biotinylated PRMT5-MEP50) (Homo sapiens (Human), UniProt O14744); assay: SPR binding assay, SAM running buffer; details: 20 μM SAM running buffer
Sequence of PRMT5•SAM (biotinylated PRMT5-MEP50) (O14744 whole entry): as the sequence (O14744 whole entry, the tested form may be a part) above
Sequence of PRMT5•SAM (biotinylated PRMT5-MEP50) (Q9BQA1 whole entry partner): as the sequence (Q9BQA1 whole entry partner, the tested form may be a part) above
Description: as §1

[6] = histone H4 peptide, absence of MTA, read-out: IC50
[7] = read-out: IC50 + 2 μM MTA, histone H4 peptide, presence of 2 μM MTA

T1 sequence (O14744 whole entry): as the sequence (O14744 whole entry, the tested form may be a part) above
T1 sequence (Q9BQA1 whole entry partner): as the sequence (Q9BQA1 whole entry partner, the tested form may be a part) above

Row | SMILES | IC50 (PRMT5/MEP50 complex [1]) [nM] | Kd [2] [nM] | IC50 [3] [nM] | IC50 (PRMT5/MEP50 complex [4]; [6]) [nM] | IC50 (PRMT5/MEP50 complex [4]; [7]) [nM] | Kd [5] [nM] | IC50 (PRMT5/MEP50 complex [4]; IC50 + 2 μM MTA, histone H4 peptide, presence of 2 μM MTA) [nM]
1 | Cc1cc2[nH]c(C(=O)N(Cc3ccc(C(F)(F)F)cn3)C3CCCc4nccnc43)cc2nc1N (stereo in doubt) [Example 10-4, (R)-5-amino-6-methyl-N-(5,6,7,8-tetrahydroquinoxalin-5-yl)-N-((5-(trifluoromethyl)pyridin-2-yl)methyl)-1H-pyrrolo[3,2-b]pyridine-2-carboxamide] | 379 |  |  |  |  |  | 
2 | CC(=O)N(Cc1cnc2c(C)cc(N)nc2c1)c1ccc2ccccc2c1C#N [Example 7-5, N-[(6-amino-8-methyl-1,5-naphthyridin-3-yl)methyl]-N-(1-cyano-2-naphthyl)acetamide] | 1340 | 2 | 3 | 6460 | 20.3 | 2 | 
3 | Cc1cc2[nH]c(C(=O)N(Cc3ccc(C(F)(F)F)cn3)[C@H]3CCCc4nccnc43)cc2nc1N [Example 10-3, (S)-5-amino-6-methyl-N-(5,6,7,8-tetrahydroquinoxalin-5-yl)-N-((5-(trifluoromethyl)pyridin-2-yl)methyl)-1H-pyrrolo[3,2-b]pyridine-2-carboxamide] | 10300 |  |  |  |  |  | 
4 | Cc1cc2ncc(C(=O)N(Cc3ccc(C(F)(F)F)cn3)[C@H]3CCCc4nccnc43)cc2nc1N [Example 10-5, (S)-6-amino-7-methyl-N-(5,6,7,8-tetrahydroquinoxalin-5-yl)-N-((5-(trifluoromethyl)pyridin-2-yl)methyl)-1,5-naphthyridine-3-carboxamide] | 14700 |  |  |  |  |  | 
5 | Cc1cc2ncc(C(=O)N(Cc3ccc(C(F)(F)F)cn3)[C@@H]3CCCc4nccnc43)cc2nc1N [Example 10-6, (R)-6-amino-7-methyl-N-(5,6,7,8-tetrahydroquinoxalin-5-yl)-N-((5-(trifluoromethyl)pyridin-2-yl)methyl)-1,5-naphthyridine-3-carboxamide] | 925 |  |  |  |  |  | 
6 | Cc1cc2ncc(C(=O)N(Cc3ccc(Br)cn3)[C@@H](C)c3ncccn3)cc2nc1N [Example 10-7, (S)-6-amino-N-((5-bromopyridin-2-yl)methyl)-7-methyl-N-(1-(pyrimidin-2-yl)ethyl)-1,5-naphthyridine-3-carboxamide] | 16200 |  |  |  |  |  | 
7 | Cc1cc2ncc(C(=O)N(Cc3ccc(Br)cn3)[C@H](C)c3ncccn3)cc2nc1N [Example 10-8, (R)-6-amino-N-((5-bromopyridin-2-yl)methyl)-7-methyl-N-(1-(pyrimidin-2-yl)ethyl)-1,5-naphthyridine-3-carboxamide] | 60.2 |  |  |  |  |  | 
8 | Cc1cc(N)nc2cc(C(=O)N(Cc3ccc(Br)cn3)[C@@H](C)c3ncccn3)cnc12 [Example 10-11, 6-amino-N-[(5-bromo-2-pyridyl)methyl]-8-methyl-N-[(1S)-1-pyrimidin-2-ylethyl]-1,5-naphthyridine-3-carboxamide] | 10400 |  |  |  |  |  | 
9 | Nc1nc2cc(NC(=O)c3ccccc3F)[nH]c2cc1Br [Example 12-4, N-(5-amino-6-bromo-1H-pyrrolo[3,2-b]pyridin-2-yl)-2-fluoro-benzamide] |  | 1890 | 1620 | 100000 | 48900 | 4950 | 
10 | Cc1cc2[nH]c(-n3cncn3)cc2nc1N [Example 13-1, 6-methyl-2-(1,2,4-triazol-1-yl)-1H-pyrrolo[3,2-b]pyridin-5-amine] |  | 510 | 1280 | > 300000 | 176000 | 1180 | 
11 | Cc1cc2[nH]c(-n3cnc(Br)c3)cc2nc1N [Example 13-3, 2-(4-bromoimidazol-1-yl)-6-methyl-1H-pyrrolo[3,2-b]pyridin-5-amine] |  | 680 | 2360 | > 300000 |  | 2010 | 131000
12 | Cc1cc2[nH]c(N3CC(=O)N(C)C3=O)cc2nc1N [Example 13-4, 1-(5-amino-6-methyl-1H-pyrrolo[3,2-b]pyridin-2-yl)-3-methyl-imidazolidine-2,4-dione] |  | 10700 | 50600 | > 300000 | > 300000 | 30900 | 
13 | Cc1cc2[nH]c(CN3C(=O)c4ccccc4C3=O)cc2nc1N [Example 14-1, 2-((5-amino-6-methyl-1H-pyrrolo[3,2-b]pyridin-2-yl)methyl)isoindoline-1,3-dione] | 626 | 1 | 7 | 10100 | 12.1 | 6 | 
14 | CC(=O)NCc1cc2nc(N)c(C)cc2[nH]1 [Example 14-3, N-((5-amino-6-methyl-1H-pyrrolo[3,2-b]pyridin-2-yl)methyl)acetamide] |  | 12 | 102 | 271000 | 138 | 38 | 
15 | CC(=O)N(C)Cc1cc2nc(N)c(C)cc2[nH]1 [Example 14-4, N-((5-amino-6-methyl-1H-pyrrolo[3,2-b]pyridin-2-yl)methyl)-N-methylacetamide] |  | 17 | 124 | 170000 | 1240 | 80 | 
16 | Cc1cc2[nH]c(C(C#N)N3C(=O)c4ccccc4C3=O)cc2nc1N (stereo not drawn) [Example 14-5, 2-(5-amino-6-methyl-1H-pyrrolo[3,2-b]pyridin-2-yl)-2-(1,3-dioxoisoindolin-2-yl)acetonitrile] |  | 203 | 37 | 245000 | 4260 | 727 | 
17 | Cc1cc2[nH]c(CN3CCc4ccccc4C3=O)cc2nc1N [Example 14-6, 2-[(5-amino-6-methyl-1H-pyrrolo[3,2-b]pyridin-2-yl)methyl]-3,4-dihydroisoquinolin-1-one] |  | 1 | 7 | 43200 | 504 | 6 | 
18 | Cc1cc2[nH]c(Cn3ccc4ccccc4c3=O)cc2nc1N [Example 14-7, 2-[(5-amino-6-methyl-1H-pyrrolo[3,2-b]pyridin-2-yl)methyl]isoquinolin-1-one] |  | 2 | 8 | 36700 | 474 | 6 | 
19 | Cc1cc2sc(CNC(=O)c3ccccc3)cc2nc1N [Example 16-1, N-[(5-amino-6-methyl-thieno[3,2-b]pyridin-2-yl)methyl]benzamide] |  | 72 | 163 | > 300000 | 18200 | 1350 | 
